From patent US6960582B2, “Guanidino compounds” (Chiron Corporation, priority 2001, dated 2005)

biological target: MC4-R (Homo sapiens, UniProt P32245); assay: cAMP Scintillation Proximity Assay (SPA) in cells expressing MC4-R; type: cell-based; conditions: intercellular cAMP concentration by SPA kit, read-out: in vitro potency (as measured by EC50 value)
Procedure: EC50 values of test compounds were determined by treating cells expressing MC4-R with test compound and lysing the cells and measuring intercellular cAMP concentration with an Amersham-Pharmacia RPA-559 cAMP Scintillation Proximity Assay (SPA) kit. The following compounds were synthesized and tested according to this assay. The following compounds are merely illustrative and should not be construed as limiting of the instant invention.

MC4-R, sequence (P32245 whole entry, species assumed): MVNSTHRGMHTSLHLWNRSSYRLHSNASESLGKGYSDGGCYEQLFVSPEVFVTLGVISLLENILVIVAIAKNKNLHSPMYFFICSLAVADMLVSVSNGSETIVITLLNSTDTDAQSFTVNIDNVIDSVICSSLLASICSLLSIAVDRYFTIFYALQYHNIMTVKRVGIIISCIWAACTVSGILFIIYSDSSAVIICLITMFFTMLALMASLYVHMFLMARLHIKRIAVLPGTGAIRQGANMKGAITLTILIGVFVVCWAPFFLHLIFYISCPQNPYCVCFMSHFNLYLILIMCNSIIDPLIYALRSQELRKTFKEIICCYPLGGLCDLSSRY

EC50, < 3 µM:
C[C@@H]1[C@@H](N=C(Nc2ccc3c(c2)CN(CCc2ccc(Cl)cc2Cl)C3=O)N2CCN[C@@H](C)C2)C[C@H]2C[C@@H]1C2(C)C [Example 1, (3S)-N-{2-[2-(2,4-dichlorophenyl)ethyl]-1-oxo-2,3-dihydro-1H-isoindol-5-yl}-3-methyl-N′-[(1S,2S,3S,5R)-2,6,6-trimethylbicyclo[3.1.1]hept-3-yl]piperazine-1-carboximidamide]
C[C@@H]1[C@@H](N=C(Nc2ccc3c(c2)C(=O)N(CCc2ccc(Cl)cc2Cl)C3)N2CCN[C@@H](C)C2)C[C@H]2C[C@@H]1C2(C)C [Example 3, (3S )-N-{2-[2-(2,4-dichlorophenyl)ethyl]-3-oxo-2,3-dihydro-1H-isoindol-5-yl}-3-methyl-N′-[(1S,2S,3S,5R)-2,6,6-trimethylbicyclo[3.1.1]hept-3-yl]piperazine-1-carboximidamide]
C[C@@H]1[C@@H](N=C(Nc2ccc3c(c2)C(=O)N(Cc2ccc(Cl)cc2Cl)C3=O)N2CCN[C@@H](C)C2)C[C@H]2C[C@@H]1C2(C)C [Example 4, (3S)-N-[2-(2,4-dichlorobenzyl)-1,3-dioxo-2,3-dihydro-1H-isoindol-5-yl]-3-methyl-N′-[(1S,2S,3S,5R)-2,6,6-trimethylbicyclo[3.1.1]hept-3-yl]piperazine-1-carboximidamide]
C[C@@H]1[C@@H](N=C(Nc2ccc3c(c2)C(=O)N([C@H](CO)Cc2ccccc2)C3=O)N2CCN[C@@H](C)C2)C[C@H]2C[C@@H]1C2(C)C [Example 5, (3S)-N-{2-[(1S)-1-benzyl-2-hydroxyethyl]-1,3-dioxo-2,3-dihydro-1H-isoindol-5-yl}-3-methyl-N′-[(1S,2S,3S,5R)-2,6,6-trimethylbicyclo[3.1.1]hept-3-yl]piperazine-1-carboximidamide]
C[C@@H]1[C@@H](N=C(Nc2ccc3c(c2)C(=O)N([C@@H](CO)Cc2ccccc2)C3=O)N2CCN[C@@H](C)C2)C[C@H]2C[C@@H]1C2(C)C [Example 6, (3S)-N-{2-[(1R)-1-benzyl-2-hydroxyethyl]-1,3-dioxo-2,3-dihydro-1H-isoindol-5-yl}-3-methyl-N′-[(1S,2S,3S,5R)-2,6,6-trimethylbicyclo[3.1.1]hept-3-yl]piperazine-1-carboximidamide]
C[C@@H]1[C@@H](N=C(Nc2ccc3c(c2)C(=O)N([C@H](CO)Cc2ccc(Cl)cc2Cl)C3=O)N2CCN[C@@H](C)C2)C[C@H]2C[C@@H]1C2(C)C [Example 8, (3S )-N-{2-[(1S)-1-(2,4-dichlorobenzyl)-2-hydroxyethyl]-1,3-dioxo-2,3-dihydro-1H-isoindol-5yl}-3-methyl-N′-[(1S,2S,3S,5R)-2,6,6-trimethylbicyclo[3.1.1]hept-3-yl]piperazine-1-carboximidamide]
C[C@@H]1[C@@H](N=C(Nc2ccc3c(c2)CN([C@H](CO)Cc2ccc(Cl)cc2Cl)C3=O)N2CCN[C@@H](C)C2)C[C@H]2C[C@@H]1C2(C)C [Example 9, (3S)-N-{2-[(1S)-1-(2,4-dichlorobenzyl)-2-hydroxyethyl]-1-oxo-2,3-dihydro-1H-isoindol-5yl}-3-methyl-N′-[(1S,2S,3S,5R)-2,6,6-trimethylbicyclo[3.1.1]hept-3-yl]piperazine-1-carboximidamide]
COc1ccc(CCN2C(=O)c3ccc(NC(=N[C@H]4C[C@H]5C[C@@H]([C@@H]4C)C5(C)C)N4CCN[C@@H](C)C4)cc3C2=O)c(F)c1 [Example 10, (3S)-N-{2-[2-(2-fluoro-4-methoxyphenyl)ethyl]-1,3-dioxo-2,3-dihydro-1H-isoindol-5yl}-3-methyl-N′-[(1S,2S,3S,5R)-2,6,6-trimethylbicyclo[3.1.1]hept-3-yl]piperazine-1-carboximidamide]
C[C@@H]1[C@@H](N=C(Nc2ccc3c(c2)C(=O)N(CCc2ccc(F)cc2F)C3=O)N2CCN[C@@H](C)C2)C[C@H]2C[C@@H]1C2(C)C [Example 11, (3S)-N-{2-[2-(2,4-difluorophenyl)ethyl]-1,3-dioxo-2,3-dihydro-1H-isoindol-5yl}-3-methyl-N′-[(1S,2S,3S,5R)-2,6,6-trimethylbicyclo[3.1.1]hept-3-yl]piperazine-1-carboximidamide]
COc1ccc(CCN2C(=O)c3ccc(NC(=N[C@H]4C[C@H]5C[C@@H]([C@@H]4C)C5(C)C)N4CCN[C@@H](C)C4)cc3C2=O)c(OC)c1 [Example 12, (3S)-N-{2-[2-(2,4-dimethoxyphenyl)ethyl]-1,3-dioxo-2,3-dihydro-1H-isoindol-5-yl}-3-methyl-N′-[(1S,2S,3S,5R)-2,6,6-trimethylbicyclo[3.1.1]hept-3-yl]piperazine-1-carboximidamide]
Cc1ccc(CCN2C(=O)c3ccc(NC(=N[C@H]4C[C@H]5C[C@@H]([C@@H]4C)C5(C)C)N4CCN[C@@H](C)C4)cc3C2=O)c(C)c1 [Example 13, (3S)-N-{2-[2-(2,4-dimethylphenyl)ethyl]-1,3-dioxo-2,3-dihydro-1H-isoindol-5-yl}-3-methyl-N′-[(1S,2S,3S,5R)-2,6,6-trimethylbicyclo[3.1.1]hept-3-yl]piperazine-1-carboximidamide]
C[C@@H]1[C@@H](N=C(Nc2ccc3c(c2)C(=O)N([C@@H](CO)[C@@H](O)c2ccccc2)C3=O)N2CCN[C@@H](C)C2)C[C@H]2C[C@@H]1C2(C)C [Example 14, (3S)-N-{2-[(1S ,2S)-2-hydroxy-1-(hydroxymethyl)-2-phenylethyl]-1,3-dioxo-2,3-dihydro-1H-isoindol-5yl}-3-methyl-N′-[(1S,2S,3S,5R)-2,6,6-trimethylbicyclo[3.1.1]hept-3-yl]piperazine-1-carboximidamide]
C[C@@H]1[C@@H](N=C(Nc2ccc3c(c2)C(=O)N([C@H](CO)[C@H](O)c2ccccc2)C3=O)N2CCN[C@@H](C)C2)C[C@H]2C[C@@H]1C2(C)C [Example 15, (3S)-N-{2-[(1R,2R)-2-hydroxy-1-(hydroxymethyl)-2-phenylethyl]-1,3-dioxo-2,3-dihydro-1H-isoindol-5-yl}-3-methyl-N′-[(1S,2S,3S,5R)-2,6,6-trimethylbicyclo[3.1.1]hept-3-yl]piperazine-1-carboximidamide]
C[C@@H]1[C@@H](N=C(Nc2ccc3c(c2)C(=O)N([C@@H](CO)[C@H](O)c2ccccc2)C3=O)N2CCN[C@@H](C)C2)C[C@H]2C[C@@H]1C2(C)C [Example 16, (3S )-N-{2-[(1S,2R)-2-hydroxy-1-(hydroxymethyl)-2-phenylethyl]-1,3-dioxo-2,3-dixo-2,3-dihydro-1H-isoindol-5-yl}-3-methyl-N′-[(1S,2S,3S,5R)-2,6,6-trimethylbicyclo[3.1.1]hept-3-yl]piperazine-1-carboximidamide]
COc1ccc(CCN2Cc3cc(NC(=N[C@H]4C[C@H]5C[C@@H]([C@@H]4C)C5(C)C)N4CCN[C@@H](C)C4)ccc3C2=O)c(F)c1 [Example 17, (3S)-N-{2-[2-(2-fluoro-4-methoxyphenyl)ethyl]-1-oxo-2,3-dihydro-1H-isoindol-5-yl}-3-methyl-N′-[(1S,2S,3S,5R)-2,6,6-trimethylbicyclo[3.1.1]hept-3-yl]piperazine-1-carboximidamide]
